{"source": "ChEMBL document CHEMBL1143737", "about": "“Synthesis and biological evaluation of conformationally constrained analogues of the antitubercular agent ethambutol” (2007)", "system": "Mycobacterium tuberculosis", "assay": "Antimycobacterial activity against Mycobacterium tuberculosis H37Rv after 6 days by colorimetric microassay", "type": "functional", "details": "144 h", "data": [{"smiles": "CC[C@@H](CO)NCCN[C@@H](CC)CO", "note": "[ETHAMBUTOL]", "values": [{"measurement": "MIC", "value": 2, "unit": "µg/mL"}]}]}
